# Data from patent US6630472B1, “Compounds, pharmaceutical compositions, and methods for stimulating neuronal growth and elongation” (priority 1998, dated 2003).
# Biological target: FKBP12 (Homo sapiens, UniProt P62942)
# Assay: rotamase inhibition assay (N-succinyl-Ala-Ala-Pro-Phe-p-nitroanilide, chymotrypsin-coupled)
# Format: biochemical
# Conditions: @ 2.5 μM
# Procedure: In the rotamase inhibition assay, isomerization of an artificial substrate N-succinyl-Ala-Ala-Pro-Phe-p-nitroanilide is followed spectrophotometrically. The assay includes the cis form of the substrate, FKBP12, the compound being tested, and chymotrypsin. Chymotrypsin is able to cleave p-nitroaniline from the trans form of the substrate, but not from the cis form. Release of p-nitroaniline is measured spectrophotometrically. Using this assay, various amounts of the FKBP rotamase-inhibiting compounds of formula (I-a) or (I-b) were added to cis-N-succinyl-alanine-alanine-proline-phenylalanine-para-nitroaniline (Bachem, 3132 Kashiwa Street, Torrance, Calif. 90505) in the presence of FKBP12 and chymotrypsin. Spectrophotometric measurements of p-nitroaniline concentrations allowed estimation of the apparent Ki values, which are provided in Table 1 below.
# Sequence of FKBP12 (P62942 whole entry, species assumed): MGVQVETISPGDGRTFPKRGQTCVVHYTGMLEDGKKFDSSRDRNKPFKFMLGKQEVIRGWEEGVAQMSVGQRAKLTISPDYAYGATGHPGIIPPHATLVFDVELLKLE
row,Compound,inhibition at 2.5 µM [%]
1,CCCC(CCC)C(=O)OC[C@@H](CN1CC2CCCC(C1=O)N2C(=O)C(=O)C(C)(C)CC)OCc1ccccc1 (stereo partly shown) [Compound 55],40
2,CCCC(CCC)C(=O)OC[C@H](CN1CC2CCCC(C1=O)N2C(=O)C(=O)C(C)(C)CC)OCc1ccccc1 (stereo partly shown) [Compound 56],40

# Same assay, conditions: apparent Ki; NI = no inhibition at the concentrations tested; read-out: Rotamase Ki(app)
row,Compound,Ki [nM]
1,C=CCC(CC=C)C(=O)OC[C@H](CN1CC2CCCC(C1=O)N2C(=O)C(=O)c1cc(OC)c(OC)c(OC)c1)OCc1ccccc1 (stereo partly shown) [Compound 73],63
2,C=CCC(CC=C)C(=O)OC[C@H](CN1CC2CCCC(C1=O)N2C(=O)C(=O)C1(COC(C)=O)CCCC1)OCc1ccccc1 (stereo partly shown) [Compound 111],663
3,CCC(CC)(COC(C)=O)C(=O)C(=O)N1C2CCCC1C(=O)N(CCCCc1ccccc1)C2 (stereo not shown) [Compound 61],790
4,CC(=O)OCC1(C(=O)C(=O)N2C3CCCC2C(=O)N(CCCCc2ccccc2)C3)CCCCC1 (stereo not shown) [Compound 86],1300
5,COc1cc(C(=O)C(=O)N2C3CCCC2C(=O)N(C(COCc2ccccc2)COC(C)=O)C3)cc(OC)c1OC (stereo not shown) [Compound 53],5000
6,COc1cc(C(=O)C(=O)N2C3CCCC2C(=O)N(C(CO)COCc2ccccc2)C3)cc(OC)c1OC (stereo not shown) [Compound 51],4000
7,CCCC(CCC)C(=O)OC[C@@H](CN1CC2CCCC(C1=O)N2C(=O)C(=O)c1cc(OC)c(OC)c(OC)c1)OCc1ccccc1 (stereo partly shown) [Compound 46],448
8,COCOCC1(C(=O)C(=O)N2C3CCCC2C2=CN(C4CCCC4)C(=O)CN2C3=O)CCCC1 (stereo not shown) [Compound 152],2800
9,COc1ccc(CN2C(=O)C3CCCC(C2C#N)N3C(=O)C(=O)c2cc(OC)c(OC)c(OC)c2)cc1 (stereo not shown) [Compound 80],1800
10,COc1cc(C(=O)C(=O)N2C3CCCC2C2OCC(COCc4ccccc4)N2C3=O)cc(OC)c1OC (stereo not shown) [Compound 42],2200
11,COCC(=O)OC1(C(=O)C(=O)N2C3CCCC2C(=O)N(CCCCc2ccccc2)C3)CCCC1 (stereo not shown) [Compound 101],1400
12,COC1(C(=O)C(=O)N2C3CCCC2C2=CN(C4CCCC4)C(=O)CN2C3=O)CCCC1 (stereo not shown) [Compound 116],960
13,COc1cc(OC)cc(N2C=C3C4CCCC(C(=O)N3CC2=O)N4C(=O)C(=O)C2(c3ccccc3)CCCC2)c1 (stereo not shown) [Compound 156],1500
14,COC[C@@H]1CC[C@@H](C)[C@](O)(C(=O)C(=O)N2C3CCCC2C(=O)N(CCCCc2ccccc2)C3)C1 (stereo partly shown) [Compound 120],2500
15,C=CCC(CC=C)C(=O)OC[C@H](CN1CC2CCCC(C1=O)N2C(=O)C(=O)C(C)(C)CC)OCc1ccccc1 (stereo partly shown) [Compound 70],890
16,"COc1cc(C(=O)C(=O)N2C3CCCC2C(=O)N(CCc2ccccc2)CC3)cc(OC)c1OC (stereo not shown) [Compound 159, 1-(2-Oxo-3-phenethyl-3,10-diaza-bicyclo[4.3.1]dec-10-yl)-2-(3,4,5-trimethoxy-phenyl)-ethane-1,2-dione]",760
17,CCOC1C2CCCC(C(=O)N1Cc1ccc(OC)cc1)N2C(=O)C(=O)c1cc(OC)c(OC)c(OC)c1 (stereo not shown) [Compound 79],700
18,O=C1C2CCCC(CN1CCOCc1ccccc1)N2C(=O)C(=O)C12CC3CC(CC(C3)C1)C2 (stereo not shown) [Compound 40],690
19,COc1cc(C(=O)C(=O)N2C3CCCC2C(=O)N([C@H]2CCC[C@@H]2OCc2ccccc2)C3)cc(OC)c1OC (stereo partly shown) [Compound 72],240
20,CCC(C)(C)C(=O)C(=O)N1C2CCCC1[C@@H]1OCCN1C2=O (stereo partly shown) [Compound 97],9000
21,CO[C@@H](C)[C@@H]1CC[C@@H](C)[C@](O)(C(=O)C(=O)N2C3CCCC2C(=O)N(CCCCc2ccccc2)C3)C1 (stereo partly shown) [Compound 99],3700
22,COCOC1(C(=O)C(=O)N2C3CCC[C@@H]2[C@@H]2Cc4c(cc(OC)cc4OC)CN2C3=O)CCCC1 [Compound 136],2400

row,Compound,Ki [nM]
1,COCOC1(C(=O)C(=O)N2C3CCC[C@@H]2[C@@H]2Cc4cc(OC(F)(F)F)ccc4CN2C3=O)CCCC1 [Compound 141],4000
2,COc1cc(C(=O)C(=O)N2C3CCCC2C(OC)N(CCCCc2ccccc2)C3=O)cc(OC)c1OC (stereo not shown) [Compound 37],222
3,COc1cc(C(=O)C(=O)N2C3CCCC2C(=O)N(C[C@H](CO)OCc2ccccc2)C3)cc(OC)c1OC (stereo partly shown) [Compound 45],580
4,COc1ccc2c(c1)C(OC)C1C3CCCC(C(=O)N1C2)N3C(=O)C(=O)c1cc(OC)c(OC)c(OC)c1 (stereo not shown) [Compound 74],111
5,CCC(CC)(COC(=O)COC)C(=O)C(=O)N1C2CCCC1C(=O)N(CCCCc1ccccc1)C2 (stereo not shown) [Compound 81],1100
6,COc1cc(C(=O)C(=O)N2C3CCCC2C(=O)N(CCCCc2ccccc2)C3=O)cc(OC)c1OC [Compound 35],73
7,COc1cc(C(=O)C(=O)N2C3CCCC2C(=O)N(CCCCc2ccccc2)C3)cc(OC)c1OC (stereo not shown) [Compound 33],227
8,CC(=O)OCC1(C(=O)C(=O)N2C3CCCC2C2=CN(C4CCCC4)C(=O)CN2C3=O)CCCC1 (stereo not shown) [Compound 121],780
9,COCOC1(C(=O)C(=O)N2[C@@H]3CCC[C@H]2C(=O)N2CC(=O)N(CC(OC)OC)C[C@H]32)CCCC1 [Compound 119],> 40000
10,C=CCC(CC=C)C(=O)OC[C@@H](CN1CC2CCCC(C1=O)N2C(=O)C(=O)C1(COC(C)=O)CCCC1)OCc1ccccc1 (stereo partly shown) [Compound 109],49
11,CCC(C)(C)C(=O)C(=O)N1C2CCCC1C1c3cccc(OC)c3CCN1C2=O (stereo not shown) [Compound 87],5000
12,COc1cc(OC)cc(N2C=C3C4CCCC(C(=O)N3CC2=O)N4C(=O)C(=O)C2(OC)CCCC2)c1 (stereo not shown) [Compound 151],530
13,COC1(C(=O)C(=O)N2C3CCCC2C(=O)N(CCCCc2ccccc2)C3)CCCC1 (stereo not shown) [Compound 100],627
14,COc1cc(C(=O)C(=O)N2C3CCCC2C2=CN(C4CCCC4)C(=O)CN2C3=O)cc(OC)c1OC (stereo not shown) [Compound 117],84
15,COC1(C(=O)C(=O)N2C3CCCC2C2=Cc4cc(C(F)(F)F)cc(C(F)(F)F)c4CN2C3=O)CCCC1 (stereo not shown) [Compound 146],> 50000
16,COc1cc(C(=O)C(=O)N2C3CCCC2C2OCCN2C3=O)cc(OC)c1OC (stereo not shown) [Compound 96],1400
17,COCC(=O)OC1(C(=O)C(=O)N2C3CCCC2C2=CN(C4CCCC4)C(=O)CN2C3=O)CCCC1 (stereo not shown) [Compound 145],1700
18,C=CCC(CC=C)C(=O)OC[C@@H](CN1CC2CCCC(C1=O)N2C(=O)C(=O)C1(COC(=O)COC)CCCC1)OCc1ccccc1 (stereo partly shown) [Compound 108],61
19,COc1ccc(OC[C@@H]2CC[C@H](N3CC4CCCC(C3=O)N4C(=O)C(=O)c3cc(OC)c(OC)c(OC)c3)C2)cc1 (stereo partly shown) [Compound 153],520
20,CC(=O)OCC1(C(=O)C(=O)N2C3CCCC2C(=O)N(CCCCc2ccccc2)C3)CCCC1 (stereo not shown) [Compound 62],160
21,CC(C)[C@@H]1CC[C@@H](C)[C@](C)(C(=O)C(=O)N2C3CCCC2C(=O)N(CCOCc2ccccc2)C3)C1 (stereo partly shown) [Compound 54],6000
22,COc1cc(C(=O)C(=O)N2C3CCCC2C(=O)N(Cc2ccccc2)C3=O)cc(OC)c1OC [Compound 34],206

row,Compound,Ki [nM]
1,COCC(=O)OCC1(C(=O)C(=O)N2C3CCCC2C(=O)N(CCCCc2ccccc2)C3)CCCC1 (stereo not shown) [Compound 84],134
2,COCOCC1(C(=O)C(=O)N2C3CCCC2C(=O)N(CCCCc2ccccc2)C3)CCCC1 (stereo not shown) [Compound 85],324
3,CCC(C)(C)C(=O)C(=O)N1C2CCCC1C1=CN(CC3CC3)C(=O)CN1C2=O (stereo not shown) [Compound 123],1200
4,COc1cc(C(=O)C(=O)N2C3CCCC2C(=O)N(C[C@@H](CO)OCc2ccccc2)C3)cc(OC)c1OC (stereo partly shown) [Compound 50],560
5,CCC(CC)C(=O)C(=O)N1C2CCCC1C(=O)N(CCCCc1ccccc1)C2 (stereo not shown) [Compound 68],2500
6,COCCOC1(C(=O)C(=O)N2C3CCCC2C(=O)N(CCCCc2ccccc2)C3)CCCC1 (stereo not shown) [Compound 98],772
7,CCC(C)(C)C(=O)C(=O)N1C2CCCC1C(=O)N([C@H]1CCC[C@@H]1OCc1ccccc1)C2 (stereo partly shown) [Compound 78],4100
8,CCC(C)(C)C(=O)C(=O)N1C2CCCC1C(=O)N(C[C@@H](CO)OCc1ccccc1)C2 (stereo partly shown) [Compound 59],3800
9,COc1cc(C(=O)C(=O)N2C3CCCC2C(=O)N(Cc2ccc4ccccc4c2)C3)cc(OC)c1OC (stereo not shown) [Compound 139],355
10,CC(C)C(=O)OC1(C(=O)C(=O)N2C3CCCC2C2=CN(C4CCCC4)C(=O)CN2C3=O)CCCC1 (stereo not shown) [Compound 150],1500
11,CCC(=O)OC1(C(=O)C(=O)N2C3CCCC2C2=CN(C4CCCC4)C(=O)CN2C3=O)CCCC1 (stereo not shown) [Compound 144],1200
12,O=C1C2CCCC(CN1CCCCc1ccccc1)N2C(=O)C(=O)C1(O)CCCC1 (stereo not shown) [Compound 95],1200
13,COc1cc(C(=O)C(=O)N2C3CCCC2C2=CN(CC4CC4)C(=O)CN2C3=O)cc(OC)c1OC (stereo not shown) [Compound 122],150
14,COc1cc(C(=O)C(=O)N2C3CCCC2C(=O)N([C@H]2CCC[C@@H]2OCc2ccccc2)C3)cc(OC)c1OC (stereo partly shown) [Compound 71],4700
15,COc1cc(C(=O)C(=O)N2C3CCCC2C(=O)N(C2CCCC2)C3=O)cc(OC)c1OC [Compound 41],5800
16,COCOCC(C)(C)C(=O)C(=O)N1C2CCCC1C(=O)N(CCCCc1ccccc1)C2 (stereo not shown) [Compound 63],3100
17,COC1(C(=O)C(=O)N2[C@@H]3CCC[C@H]2C(=O)N2Cc4c(cc(C(F)(F)F)cc4C(F)(F)F)C[C@@H]32)CCCC1 [Compound 137],9700
18,CC(=O)OCC1(C(=O)C(=O)N2C3CCCC2C2=CN(CC4CC4)C(=O)CN2C3=O)CCCC1 (stereo not shown) [Compound 124],380
19,COc1cc(OC)cc(N2C=C3C4CCCC(C(=O)N3CC2=O)N4C(=O)C(=O)C(C)(C)c2ccccc2)c1 (stereo not shown) [Compound 155],1200
20,CCC(C)(C)C(=O)C(=O)N1C2CCCC1C(=O)N(CCCCc1ccccc1)C2=O [Compound 36],445
21,COCOC1(C(=O)C(=O)N2C3CCCC2C2=CN(C4CCCC4)C(=O)CN2C3=O)CCCC1 (stereo not shown) [Compound 135],1400
